In patent US8785462B2, “5-hydroxypyrimidine-4-carboxamide derivative” (Daiichi Sankyo Company, Limited, priority 2009, dated 2014) one finds fold induction data, which are given here for five compounds.

As a reminder, the fold induction is the ratio of treated to control signal.

In this experiment the test system is human liver cancer-derived cell line Hep3B. The experiment can be described thus: In vitro erythropoietin (EPO) induction activity in Hep3B cells (human EPO ELISA of culture supernatant). The class given is cell-based. As to conditions: test compound 12.5 μM, Hep3B cells cultured 24 hours at 37° C., multiple of the EPO concentration in the control (0.5% DMSO = 1). As to the method: In vitro erythropoietin (EPO) induction activity of test compounds was evaluated using human liver cancer-derived cell line Hep3B (ATCC, Manassas, Va.). Hep3B cells were cultured overnight at 37° C. in Dulbecco's modified Eagle's medium (DMEM) in the presence of 10% fetal bovine serum (FBS) (24-well plate, 1.0×10^5 cells/well). After replacing with fresh DMEM (+10% FBS) containing a test compound dissolved in 0.5% dimethyl sulfoxide (DMSO) (prepared to a concentration of 12.5 μM) or a solvent control (0.5% DMSO), the cells were cultured for 24 hours at 37° C. After recovering the culture supernatant, EPO concentration in the culture supernatant was quantified using a human EPO ELISA kit (StemCell Technologies).
The EPO concentration in the case of using a compound of each example as a test compound was expressed as a multiple of the EPO concentration in the control.
`CC[C@@H](O)Cc1ccc(-c2ccc(N3CCC(Cc4nc(C)c(O)c(C(=O)NCC(=O)O)n4)CC3)cc2)cc1` [Example 48, [({5-Hydroxy-2-[(1-{4′-[(2R)-2-hydroxybutyl]biphenyl-4-yl}piperidin-4-yl)methyl]-6-methylpyrimidin-4-yl}carbonyl)amino]acetic acid]: the fold induction at 12.5 µM was 42. In turn, `Cc1nc(CC2CCN(c3ccc(-c4ccc(CO)cc4)cc3)CC2)nc(C(=O)NCC(=O)O)c1O` [Example 1, ({[5-Hydroxy-2-{(1-[4′-(hydroxymethyl)biphenyl-4-yl]piperidin-4-yl}methyl)-6-methylpyrimidin-4-yl]carbonyl}amino)acetic acid] returned a fold induction at 12.5 µM of 55. Take `CCC(O)Cc1ccc(-c2ccc(N3CCC(Cc4nc(C)c(O)c(C(=O)NCC(=O)O)n4)CC3)cc2)cc1` (centres unmarked) [Example 27, ({[5-Hydroxy-2-{(1-[4′-(2-hydroxybutyl)biphenyl-4-yl]piperidin-4-yl}methyl)-6-methylpyrimidin-4-yl]carbonyl}amino)acetic acid]: the fold induction at 12.5 µM worked out at 30. `Cc1nc(CC2CCN(c3ccc(-c4ccc(CO)cc4F)cc3)CC2)nc(C(=O)NCC(=O)O)c1O` [Example 36, ({[2-{(1-[2′-Fluoro-4′-(hydroxymethyl)biphenyl-4-yl]piperidin-4-yl}methyl)-5-hydroxy-6-methylpyrimidin-4-yl]carbonyl}amino)acetic acid]: the fold induction at 12.5 µM stood at 25. To `COCc1ccc(-c2ccc(N3CCC(Cc4nc(C)c(O)c(C(=O)NCC(=O)O)n4)CC3)cc2)cc1` [Example 35, ({[5-Hydroxy-2-{(1-[4′-(methoxymethyl)biphenyl-4-yl]piperidin-4-yl}methyl)-6-methylpyrimidin-4-yl]carbonyl}amino)acetic acid] belongs 53.
